Entries after “also recorded” stand apart in the source; their conditions may differ.
Test system: human neutrophils (PMNLs), 5-LOX product synthesis
Assay: 5-LOX metabolite synthesis in human neutrophils stimulated with opsonized S. typhimurium (HPLC)
Type: cell-based

Substance: QLRKLNLSFNYQKRVSFAHLSLAPSFGSLV [LRR11, 30 amino acid peptide from leucine-rich repeat of TLR9]
- effect of LRR11 on 5-LOX product synthesis in combination with ODN or LPS (1 µM LRR11 added simultaneously with 1 µM ODN or LPS, then opsonized S. typhimurium, Figure 1): does not significantly change the effects of G-rich ODN and lipopolysaccharides (LPS), but obviously enhances the effects of CpG-ODNs; also recorded: stimulated the formation of the 5-LOX products; also recorded: synergistically amplifying each other’s effects
- effect of LRR11 on FPS-ZM1 action on leukotriene synthesis (1 µM LRR11 with ODN after 0.15 µM FPS-ZM1, Figure 3): its action is nullified in the presence of LRR11 peptide; also recorded: LRR11 abolished the effects of FPS-ZM1 and restored the level of leukotriene synthesis
- LTB4 accumulation, dependence on way of LRR11 addition ((1) LRR11 15 min before ODN, (2) simultaneously but independently, (3) 1-h pre-mixed): only pathways (2) and (3) provide a significant effect on LTB4 accumulation

Substance: 5′-tcgtcgttttcggcgcgcgccg-3′ (DNA TCGTCGTTTTCGGCGCGCGCCG; chemistry not fully specified) [C-CpG]
- effect on 5-LOX activity / leukotriene synthesis (ODN alone, 1 µM, 20 min, then opsonized S. typhimurium 15 min, Figure 1, five independent experiments in duplicate): increased leukotriene synthesis
- Σ 5-LOX metabolites (Table S1, 2×10^7 PMNLs, 15 min at 37 °C without or with 5 µM Chloroquine, then ODN, after 20 min 0.5×10^9 opsonized S. typhimurium for 15 min, mean ± SEM, three independent experiments): 42.1 ± 4.2 ng/107 PMNLs

Reference: article PMC7961786, “Magic Peptide: Unique Properties of the LRR11 Peptide in the Activation of Leukotriene Synthesis in Human Neutrophils” (International Journal of Molecular Sciences, 2021)
